Assay results taken from patent EP0908457B1, “3-(1,2-benzisothiazol- and isoxazol-5-Y1)-2,4(1H,3H)-pyrimidinedione or thione and 3-(1,2-benzisothiazol- and isoxazol-5-y1)-4(3H)-pyrimidinone or thione herbicidal agents” (BASF AKTIENGESELLSCHAFT, priority 1997, dated 1999).

What was measured:
Type in all cases: in vivo
[1] = system: Cyperus serotinus, Rottb.; assay: Preemergence weed control under flooded paddy conditions, CYPSE (Flatsedge); conditions: for herbicidal effect rating, CYPSE: preemergence, rated three to four weeks after treatment; for CYPSE: preemergence weeds, herbicidal effect rating 0-9, three to four weeks after treatment
Sagittaria pygmaea, L. = assay: Preemergence weed control under flooded paddy conditions, SAGPY (Arrowhead (Pygmaea)); conditions: flooded paddy; for herbicidal effect rating, SAGPY: preemergence, rated three to four weeks after treatment; for SAGPY: preemergence weeds, herbicidal effect rating 0-9, three to four weeks after treatment
[2] = system: Monochoria vaginalis, Presl.; assay: Preemergence weed control under flooded paddy conditions, MOOVA (Monochoria); conditions: flooded paddy; for herbicidal effect rating, MOOVA: preemergence, rated three to four weeks after treatment; for MOOVA: preemergence weeds, herbicidal effect rating 0-9, three to four weeks after treatment
[3] = system: Echinochloa oryzoides (Ard.) Fritsch.; assay: Preemergence weed control under flooded paddy conditions, ECHORC (Watergrass (Calif.)); conditions: flooded paddy; for herbicidal effect rating, ECHORC: preemergence, rated three to four weeks after treatment; for ECHORC: preemergence weeds, herbicidal effect rating 0-9, three to four weeks after treatment
Cyperus iria = assay: Preemergence weed control under flooded paddy conditions, CYPIR (Rice Flatsedge); conditions: flooded paddy; for herbicidal effect rating, CYPIR: preemergence, rated three to four weeks after treatment; for CYPIR: preemergence weeds, herbicidal effect rating 0-9, three to four weeks after treatment

Structure (SMILES)	herbicidal effect rating, CYPSE ([1]; Rate 0.2500 kg/ha)	herbicidal effect rating, SAGPY (Sagittaria pygmaea, L.; Rate 0.2500 kg/ha)	herbicidal effect rating, MOOVA ([2]; Rate 0.2500 kg/ha)	CYPSE ([1]; 0.0320 kg/ha)	SAGPY (Sagittaria pygmaea, L.; 0.0320 kg/ha)	SAGPY (Sagittaria pygmaea, L.; 0.0620 kg/ha)	SAGPY (Sagittaria pygmaea, L.; 0.1250 kg/ha)	MOOVA ([2]; 0.0320 kg/ha)	MOOVA ([2]; 0.0620 kg/ha)	MOOVA ([2]; 0.1250 kg/ha)	ECHORC ([3]; 0.0320 kg/ha)	ECHORC ([3]; 0.0620 kg/ha)	ECHORC ([3]; 0.1250 kg/ha)	CYPIR (Cyperus iria; 0.0320 kg/ha)	CYPIR (Cyperus iria; 0.0620 kg/ha)	CYPIR (Cyperus iria; 0.1250 kg/ha)	SAGPY (Sagittaria pygmaea, L.; 0.2500 kg/ha)	MOOVA ([2]; 0.2500 kg/ha)	ECHORC ([3]; 0.2500 kg/ha)	CYPIR (Cyperus iria; 0.2500 kg/ha)	also measured
Cn1c(C(F)(F)F)cc(=O)n(-c2ccc3snc(C(=O)NOCc4ccccc4)c3c2)c1=O [Example 400, 1,2-Benzisothiazole-3-carboxamide, N-(benzyloxy)-5-[3,6-dihydro-3-methyl-2,6-dioxo-4-(trifluoromethyl)-1(2H)-pyrimidinyl]-]	0.0	0.0	9.0	–	–	–	–	–	–	–	–	–	–	–	–	–	–	–	–	–	herbicidal effect rating, CYPSE ([1]; Rate 0.0320 kg/ha): 0.0; herbicidal effect rating, CYPSE ([1]; Rate 0.0620 kg/ha): 0.0; herbicidal effect rating, CYPSE ([1]; Rate 0.1250 kg/ha): 0.0; herbicidal effect rating, SAGPY (Sagittaria pygmaea, L.; Rate 0.0320 kg/ha): 0.0; herbicidal effect rating, SAGPY (Sagittaria pygmaea, L.; Rate 0.0620 kg/ha): 0.0; herbicidal effect rating, SAGPY (Sagittaria pygmaea, L.; Rate 0.1250 kg/ha): 0.0; herbicidal effect rating, MOOVA ([2]; Rate 0.0320 kg/ha): 6.0; herbicidal effect rating, MOOVA ([2]; Rate 0.0620 kg/ha): 7.0; herbicidal effect rating, MOOVA ([2]; Rate 0.1250 kg/ha): 7.0; herbicidal effect rating, ECHORC ([3]; Rate 0.0320 kg/ha): 0.0; herbicidal effect rating, ECHORC ([3]; Rate 0.0620 kg/ha): 0.0; herbicidal effect rating, ECHORC ([3]; Rate 0.1250 kg/ha): 0.0; herbicidal effect rating, ECHORC ([3]; Rate 0.2500 kg/ha): 0.0; herbicidal effect rating, CYPIR (Cyperus iria; Rate 0.0320 kg/ha): 3.0; herbicidal effect rating, CYPIR (Cyperus iria; Rate 0.0620 kg/ha): 3.0; herbicidal effect rating, CYPIR (Cyperus iria; Rate 0.1250 kg/ha): 9.0; herbicidal effect rating, CYPIR (Cyperus iria; Rate 0.2500 kg/ha): 9.0
Cn1c(C(F)(F)F)cc(=O)n(-c2ccc3snc(COC(=O)Cc4ccc(Cl)cc4Cl)c3c2)c1=O [Example 401, 2,4(1H,3H)-Pyrimidinedione, 3-[3-(hydroxymethyl)-1,2-benzisothiazol-5-yl]-1-methyl-6-(trifluoromethyl)-, (2,4-dichlorophenyl)acetate (ester)]	3.0	3.0	9.0	–	–	–	–	–	–	–	–	–	–	–	–	–	–	–	–	–	herbicidal effect rating, CYPSE ([1]; Rate 0.0620 kg/ha): 0.0; herbicidal effect rating, CYPSE ([1]; Rate 0.1250 kg/ha): 0.0; herbicidal effect rating, SAGPY (Sagittaria pygmaea, L.; Rate 0.0320 kg/ha): 0.0; herbicidal effect rating, SAGPY (Sagittaria pygmaea, L.; Rate 0.0620 kg/ha): 0.0; herbicidal effect rating, SAGPY (Sagittaria pygmaea, L.; Rate 0.1250 kg/ha): 2.0; herbicidal effect rating, MOOVA ([2]; Rate 0.0320 kg/ha): 6.0; herbicidal effect rating, MOOVA ([2]; Rate 0.0620 kg/ha): 7.0; herbicidal effect rating, MOOVA ([2]; Rate 0.1250 kg/ha): 7.0; herbicidal effect rating, ECHORC ([3]; Rate 0.0320 kg/ha): 0.0; herbicidal effect rating, ECHORC ([3]; Rate 0.0620 kg/ha): 0.0; herbicidal effect rating, ECHORC ([3]; Rate 0.1250 kg/ha): 2.0; herbicidal effect rating, ECHORC ([3]; Rate 0.2500 kg/ha): 6.0; herbicidal effect rating, CYPIR (Cyperus iria; Rate 0.0320 kg/ha): 3.0; herbicidal effect rating, CYPIR (Cyperus iria; Rate 0.0620 kg/ha): 4.0; herbicidal effect rating, CYPIR (Cyperus iria; Rate 0.1250 kg/ha): 5.0; herbicidal effect rating, CYPIR (Cyperus iria; Rate 0.2500 kg/ha): 6.0
Cn1c(C(F)(F)F)cc(=O)n(-c2ccc3snc(COC(=O)Cc4ccccc4Cl)c3c2)c1=O [Example 402, 2,4(1H,3H)-Pyrimidinedione, 3-[3-(hydroxymethyl)-1,2-benzisothiazol-5-yl]-1-methyl-6-(trifluoromethyl)-, (o-chlorophenyl)acetate (ester)]	5.0	3.0	9.0	–	–	–	–	–	–	–	–	–	–	–	–	–	–	–	–	–	herbicidal effect rating, CYPSE ([1]; Rate 0.0620 kg/ha): 0.0; herbicidal effect rating, CYPSE ([1]; Rate 0.1250 kg/ha): 0.0; herbicidal effect rating, SAGPY (Sagittaria pygmaea, L.; Rate 0.0320 kg/ha): 0.0; herbicidal effect rating, SAGPY (Sagittaria pygmaea, L.; Rate 0.0620 kg/ha): 0.0; herbicidal effect rating, SAGPY (Sagittaria pygmaea, L.; Rate 0.1250 kg/ha): 0.0; herbicidal effect rating, MOOVA ([2]; Rate 0.0320 kg/ha): 7.0; herbicidal effect rating, MOOVA ([2]; Rate 0.0620 kg/ha): 7.0; herbicidal effect rating, MOOVA ([2]; Rate 0.1250 kg/ha): 9.0; herbicidal effect rating, ECHORC ([3]; Rate 0.0320 kg/ha): 0.0; herbicidal effect rating, ECHORC ([3]; Rate 0.0620 kg/ha): 0.0; herbicidal effect rating, ECHORC ([3]; Rate 0.1250 kg/ha): 3.0; herbicidal effect rating, ECHORC ([3]; Rate 0.2500 kg/ha): 4.0; herbicidal effect rating, CYPIR (Cyperus iria; Rate 0.0320 kg/ha): 0.0; herbicidal effect rating, CYPIR (Cyperus iria; Rate 0.0620 kg/ha): 2.0; herbicidal effect rating, CYPIR (Cyperus iria; Rate 0.1250 kg/ha): 3.0; herbicidal effect rating, CYPIR (Cyperus iria; Rate 0.2500 kg/ha): 7.0
CONC(=O)c1nsc2ccc(-n3c(=O)cc(C(F)(F)F)n(C)c3=O)cc12 [Example 403, 1,2-Benzisothiazole-3-carboxamide, 5-[3,6-dihydro-3-methyl-2,6-dioxo-4-(trifluoromethyl)-1(2H)-pyrimidinyl]-N-methoxy-]	4.0	9.0	9.0	0.0	3.0	9.0	9.0	7.0	6.0	9.0	0.0	2.0	4.0	5.0	6.0	7.0	–	–	–	–	CYPSE ([1]; 0.0620 kg/ha): 0.0; CYPSE ([1]; 0.1250 kg/ha): 2.0; herbicidal effect rating, ECHORC ([3]; Rate 0.2500 kg/ha): 4.0; herbicidal effect rating, CYPIR (Cyperus iria; Rate 0.2500 kg/ha): 9.0
Cn1c(C(F)(F)F)cc(=O)n(-c2ccc3snc(C(SCCCO)SCCCO)c3c2)c1=O [Example 424, 1,2-Benzisothiazole-3-carboxaldehyde, 5-[3,6-dihydro-3-methyl-2,6-dioxo-4-(trifluoromethyl)-1(2H)-pyrimidinyl]-, 3-[bis(3-hydroxypropyl)dithioacetal]]	–	–	–	–	0.0	0.0	0.0	7.0	9.0	9.0	0.0	0.0	3.0	4.0	5.0	6.0	0.0	9.0	3.0	7.0	CYPSE ([1]; 0.1250 kg/ha): 3.0; CYPSE ([1]; 0.2500 kg/ha): 3.0
COc1ccc(C)cc1-c1nsc2cc(Cl)c(-n3c(=O)cc(C(F)(F)F)n(C)c3=O)cc12 [Example 442, 2,4(1H,3H)-Pyrimidinedione, 3-[6-chloro-3-(6-methoxy-m-tolyl)-1,2-benzisothiazol-5-yl]-1-methyl-6-(trifluoromethyl)-]	–	–	–	0.0	1.3	1.7	2.0	6.0	8.3	9.0	8.3	9.0	9.0	4.3	6.3	8.7	4.0	9.0	9.0	9.0	CYPSE ([1]; 0.0620 kg/ha): 0.0; CYPSE ([1]; 0.1250 kg/ha): 0.0; CYPSE ([1]; 0.2500 kg/ha): 4.5
COC(=O)COc1ccc(C)cc1-c1nsc2cc(Cl)c(-n3c(=O)cc(C(F)(F)F)n(C)c3=O)cc12 [Example 443, Acetic acid, {{2-{6-chloro-5-[3,6-dihydro-3-methyl-2,6-dioxo-4-(trifluoromethyl)-1(2H)-pyrimidinyl]-1,2-benzisothiazol-3-yl}-p-tolyl}oxy}-, methyl ester]	–	–	–	0.0	3.0	3.0	4.0	5.0	6.0	7.0	6.0	5.0	7.0	4.0	6.0	7.0	5.0	7.0	9.0	7.0	CYPSE ([1]; 0.0620 kg/ha): 0.0; CYPSE ([1]; 0.1250 kg/ha): 0.0
Cn1c(C(F)(F)F)cc(=O)n(-c2ccc3snc(C(=O)c4ccccc4)c3c2)c1=O [Example 449, 2,4(1,3H)-Pyrimidinedione, 3-(3-benzoyl-1,2-benzisothiazol-5-yl)-1-methyl-6-(trifluoromethyl)-]	–	–	–	2.0	2.0	4.0	4.0	7.0	7.0	9.0	5.0	7.0	9.0	4.0	5.0	8.0	6.0	9.0	9.0	9.0	CYPSE ([1]; 0.2500 kg/ha): 4.0
COc1ccc(CC(=O)OCc2nsc3ccc(-n4c(=O)cc(C(F)(F)F)n(C)c4=O)cc23)cc1 [Example 450, 2,4(1H,3H)-Pyrimidinedione, 3-[3-(hydroxymethyl)-1,2-benzisothiazol-5-yl]-1-methyl-6-(trifluoromethyl)-, (p-methoxyphenyl)acetate (ester)]	–	–	–	0.0	5.0	5.0	6.0	7.0	7.0	9.0	0.0	2.0	6.0	6.0	7.0	9.0	9.0	9.0	9.0	9.0	–
Cn1c(C(F)(F)F)cc(=O)n(-c2ccc3snc(COC(=O)Cc4cccs4)c3c2)c1=O [Example 451, 2,4(1H,3H)-Pyrimidinedione, 3-[3-(hydroxymethyl)-1,2-benzisothiazol-5-yl]-1-methyl-6-(trifluoromethyl)-, 2-thienylacetate (ester)]	–	–	–	–	4.0	5.0	6.0	9.0	9.0	9.0	0.0	0.0	6.0	5.0	5.0	7.0	9.0	9.0	7.0	9.0	CYPSE ([1]; 0.0620 kg/ha): 0.0; CYPSE ([1]; 0.2500 kg/ha): 0.0
